Here are results for nine compounds from patent publication US9464057B2, “Anti-malarial agents” (MMV MEDICINES FOR MALARIA VENTURE, priority 2013, dated 2016).

For test [1], the system named is multidrug-resistant P. falciparum line Dd2. Put plainly: P. falciparum growth inhibition by 3H-hypoxanthine incorporation. The following applies: Plasmodium falciparum. The class given is cell-based. The protocol: The ability of pyrazole derivatives according to the invention to kill P. falciparum parasites and/or to inhibit its proliferation is assayed through their ability to inhibit Plasmodium falciparum growth determined by 3H-hypoxanthine incorporation. The assay is derived from the method originally described by Desjardin et al., 1979, Antimicrob. Agents Chemother, 16: 710-718 which was modified. The method assesses parasite growth as reflected by incorporation of radiolabeled hypoxanthine by parasites. P. falciparum in culture are exposed to graded dilutions of test compounds for 48 h and incorporation of 3H-hypoxanthine over the last 24 h into parasite nucleic acids is determined by liquid scintillation spectroscopy. The specific method is described below: The test compounds are diluted by three-fold serial dilutions, in triplicate wells, using low hypoxanthine medium (LHM) RPMI (Roswell Park Memorial Institute medium), 1640, 0.5% Albumax, 0.2% sodium bicarbonate, 0.025M HEPES, 2 mM glutamine, 50 μg/ml Gentamicin, 2.5 μg/ml hypoxanthine, pH 7.35) in sterile flat-bottomed 96 well plates. Final volume in each well is 100 μl. Triplicate control wells contain 100 μl LHM without any inhibitor.
The mixed stage parasitized red blood cells (RBCs), containing greater than 50% ring stage parasites, are diluted to 1% parasitemia using uninfected RBCs, washed two times with LHM, and diluted to 3% hematocrit with LHM. 100 μl of diluted parasites is added to each well. Thus, the final hematocrit is 1.5% with 0.5% parasitemia at the beginning of the assay.
The plates comprising the test wells are placed in a humidified chamber, gassed with 5% CO2, 5% O2, 90% N2, and placed in a 36.5° C. incubator for 24 h. After 24 h incubation, 0.25 μCi of 3H-hypoxanthine in 20 μL LHM is added to each well. Plates are returned to the chamber, gassed, and incubated for an additional 24 h. At the end of the second 24 h incubation, plates are transferred to a −80° C. freezer and stored for a minimum of 2 h. then Plates are thawed and the lysed material is transferred to EasyTabC glass fiber filters (Perkin Elmer; PE) using a Packard Filtermate 196 Cell Harvester. Filters are dried, placed in an Omnifilter Cassette (Perkin Elmer), and 30 μl of Microscint-O-high efficiency liquid scintillation cocktail (PE) is added to each 3 well. The plates are sealed with a Top-Seal for 96 well microplates (Perkin Elmer) and counted using a Packard TopCount-1 microplate liquid scintillation counter. Results are tabulated and graphed using Prism GraphPad software to determine effective EC50 values (concentration at which 50% parasite growth inhibition occurs).

Test [2] concerns Plasmodium falciparum Pf3D70087/N9. Description: in vivo therapeutic efficacy, 4-day-test in humanized mice. Set-up: species or system NOD-scidIL2Rγnull mice engrafted with human erythrocytes. The following applies: single oral dose per day for four consecutive days; for ED50: 50% inhibition of blood parasitemia by flow cytometry; for ED90: 90% inhibition of blood parasitemia by flow cytometry. The procedure:
The ability of pyrazole derivatives according to the invention to show antimalarial efficacy in vivo can be tested by using the protocols described by Jimenez-Diaz et al., 2009, Antimicrob. Agents Chemother., 53:4533-4536. The therapeutic efficacy of compounds of invention against Plasmodium falciparum Pf3D70087/N9 growing in peripheral blood of NOD-scidIL2Rγnull mice engrafted with human erythrocytes. Efficacy is assessed by administering varying amounts of single oral doses of compounds per day for four consecutive days (4-day-test) and measuring their effect on blood parasitemia by flow cytometry. This assay provides effective doses of compounds capable of inhibiting 50% (ED50) and 90% (ED90) levels of parasitemia.

Test [3] relates to field isolates of Plasmodium falciparum. Description: ex vivo parasite growth inhibition assay, field isolates of Plasmodium falciparum. Type of test: cell-based. As to conditions: P. falciparum field isolates (15 isolates), read-out: Median EC50. The source says:
(§1) Compound 2 has also been tested against field isolates of Plasmodium falciparum (15 isolates) and Plasmodium vivax (15 isolates) using an ex vivo parasite growth inhibition assay as described in Marfurt et al., 2011, Antimicrob Agents Chemother., 55(3): 961.

In test [4] the test system is field isolates of Plasmodium vivax. Description: ex vivo parasite growth inhibition assay, field isolates of Plasmodium vivax. The class given is cell-based. As to conditions: P. vivax field isolates (15 isolates), read-out: Median EC50.
From the text: as §1

The mark [5] stands for this setting: P. falciparum Dd2, 48 h exposure, 3H-hypoxanthine incorporation over last 24 h, read-out: EC50 (concentration at which 50% parasite growth inhibition occurs).
Setting [6] is: DD2, read-out: EC50 (concentration at which 50% parasite growth inhibition occurs).

pEC50: −log10 of the molar value. Where two headings read alike, the source gives them in different places.

For the compound `C[C@@H]1CC[C@H]2[C@@H](C)C(=O)O[C@@H]3O[C@@]4(C)CC[C@@H]1[C@]32OO4` [Artemisinin, reference compound], the pEC50 in test [1] (setting [5]) is 7.92.
In the case of `O=C1C(O)=C([C@H]2CC[C@H](c3ccc(Cl)cc3)CC2)C(=O)c2ccccc21` [Atovaquone, reference compound], in test [1] (setting [5]), the pEC50 was 9.00.
Consider `CCN(CC)CCCC(C)Nc1ccnc2cc(Cl)ccc12` (stereo not shown) [Chloroquine, reference compound], for which, in test [2], the ED50 is 4.3 mg/kg per day.
Regarding `CC(C)c1nc2ccccc2n1CC(=O)Nc1c(-c2ccc(Cl)cc2F)c(C(F)(F)F)nn1C` [Compound 1, N-(4-(4-chloro-2-fluorophenyl)-3-(trifluoromethyl)-1-methyl-1H-pyrazol-5-yl)-2-(2-isopropyl-1H-benzo[d]imidazol-1-yl)acetamide], in test [1] (setting [6]), the pEC50 is 9.15. In test [2], this compound yielded an ED50 of 0.53 mg/kg per day and an ED90 of 0.94 mg/kg per day.
Turning to `Cc1nn(C)c(NC(=O)Cn2c(C(C)C)nc3ccccc32)c1-c1ccc(Cl)cc1F` [Compound 2, N-(4-(4-chloro-2-fluorophenyl)-1,3-dimethyl-M-pyrazol-5-yl)-2-(2-isopropyl-M-benzo[d]imidazol-1-yl)acetamide], the figures for the pEC50 in test [1] (setting [6]), in test [3] and in test [4] were 8.27, 7.82 and 8.00, respectively. Also, the ED50 in test [2] was determined as 1.7 mg/kg per day. In addition, the ED90 in test [2] was 2.5 mg/kg per day.
With `Cn1nc(C(F)(F)F)c(-c2ccc(F)cc2)c1NC(=O)C[C@H](N)Cc1ccc(F)cc1` [Compound 3, (R)-3-amino-N-(3-(trifluoromethyl)-4-(4-fluorophenyl)-1-methyl-1H-pyrazol-5-yl)-4-(4-fluorophenyl)butanamide], the pEC50 in test [1] (setting [6]) was 9.70. Also, in test [2], the ED50 is reported as 1.8 mg/kg per day and the ED90 is recorded as 3.0 mg/kg per day.
Consider `Cc1nn(C)c(NC(=O)C[C@H](N)Cc2ccc(F)cc2)c1-c1ccc(F)cc1` [Compound 4, (R)-3-amino-4-(4-fluorophenyl)-N-(4-(4-fluorophenyl)-1,3-dimethyl-1H-pyrazol-5-yl) butanamide], for which the pEC50 in test [1] (setting [6]) was 8.10. In test [2], this compound yielded an ED50 of 3.0 mg/kg per day and an ED90 of 4.1 mg/kg per day.
On to `COc1ccc(-c2c(C(F)(F)F)nn(C)c2NC(=O)Nc2ccc(F)cc2F)cc1` [Reference 1, reference compound], for which the pEC50 in test [1] (setting [5]) was 6.82.
Regarding `Cn1nc(C(F)(F)F)c(-c2ccc(Br)cc2)c1NC(=O)Cc1ccccc1F` [Reference 2, reference compound], in test [1] (setting [5]), the pEC50 was 7.30.
